One data set concerns HIV-1Bal.01. To be noted: for IC50: read-out: HIV-1Bal.01 infection inhibition IC50, HIV-1Bal.01 pseudovirus, HOS.T4.R5 cells.
The next data set has as its target T1, wild type gp120 YU-2 (Human immunodeficiency virus type 1 group M subtype B, UniProt P35961).
T1 construct: into 30 μM of YU2 full-length gp120 at 25° C; made in house; host or cells: HEK 293F
The data set can be described thus: Isothermal titration calorimetry binding to gp120. Further details: species or system HIV-1. The protocol: FIGS. 9A-9C illustrate cPT binding and thermodynamic profile of monomeric wild type gp120 YU-2 for cPTs 3 (FIGS. 9A and 9C) and 36 (FIGS. 9B and 9C). Compound solution, 390 μM (for 3) or 200 μM (for 36), was titrated in 8 μL steps into 30 μM of YU2 full-length gp120 at 25° C. in the reaction chamber of a VP-ITC instrument using 1×PBS buffer at pH 7.3. The resulting heat changes were integrated, and the values obtained were fitted to a quadratic binding equation (one site binding model).
cPT dissociation constants were determined at 25° C. on a VP-Isothermal Titration calorimeter (VP-ITC) system (MicroCal™, GE Healthcare, Freiburg). 200 μM (for 36) or 390 μM (for 3) compound solutions were in 8 μL steps titrated into 30 μM of wild type gp120 YU-2 at 25° C. using 1×PBS buffer at pH 7.3. The resulting heat change upon injection was integrated over a time range of 300 sec, and the obtained values were fitted to a standard single-site binding model using ORIGIN®.
(In general: In ITC the heat of successive injections is recorded.)

Data set [1] concerns the target T2, HIV-1YU-2 gp120 binding to mAb 17b (Human immunodeficiency virus type 1 group M subtype B, UniProt P35961).
T2 construct: The purified DNA encoding gp120 YU-2 was transfected into HEK 293F cells; made in house; host or cells: HEK 293F
Put plainly: SPR competition assay: inhibition of gp120 binding to 17b (co-receptor surrogate). The conditions noted are these: for inhibition of gp120 binding to 17b (in words): SPR competition. The protocol:
(§1) SPR experiments are performed on a Biacore 3000 optical biosensor (GE Healthcare). All experiments are carried out at 25° C. using standard PBS buffer pH=7.4 with 0.005% surfactant Tween and 2% DMSO.
(§2) Three flow cells in the CM5 chip were used for amine coupling of different ligands through standard 1-ethyl-3-(3-(dimethylamino) propyl) carbodiimide (EDC)/N-hydroxysuccinamide (NHS) chemistry. Flow cell 1 containing 2000 RUs of immobilized antibody 2B6R (α-human IL5R) served as a negative control for flow cells 2 and 3 each of which contained 2000 RUs of immobilized CD4 and 17b respectively.
(§3) For kinetic analyses, typically 2000-3000 RUs of protein reagents are immobilized on SPR chips, and analytes are passed over the surface at 50-100 μL/min. Surface regeneration is achieved by a 5 μL injection of 10 mM HCl solution at 100 μL/min. […] Regeneration of the surface is achieved by a single 10 second pulse of 1.3 M NaCl/35 mM NaOH and single 5-second pulse of 10 mM glycine, pH 1.5, for sCD4 and mAb 17b, respectively.
(§4) Data analysis of SPR competition data was performed using BIAevaluation v4.1.1 software (GE). To correct for nonspecific binding, response signals from buffer injection and from control flow cell were subtracted from all sensorgrams. Inhibition potencies were determined by calculating the inhibitor concentration required for 50% inhibition of maximal binding (IC50). The inhibition curve was plotted and then fitted using the four-parameter equation as shown below using OriginPro 8 graphing software.
(§5) The cyclic peptides of the invention are tested against HIV-1 gp120 by SPR competition assays. A mixture of the cyclic peptide/gp120 solutions is passed over SPR chip immobilized with CD4 and 17b separately. The competition assay evaluates the ability of each peptide to inhibit the binding between gp120 and both soluble CD4 and 17b antibody, a surrogate for co-receptor.

In data set [2] the target is T3, HIV-1YU-2 gp120 binding to sCD4 (Human immunodeficiency virus type 1 group M subtype B, UniProt P35961).
T3 construct: The purified DNA encoding gp120 YU-2 was transfected into HEK 293F cells; made in house; host or cells: HEK 293F
The data set can be described thus: SPR competition assay: inhibition of gp120 binding to CD4. To be noted: for inhibition of gp120 binding to CD4 (in words): SPR competition. The protocol:
as §1, §2, §3, §4, §5

For a further data set, the system named is HOS.T4.R5 cells. The protocol: cPTs 36 and 37 were tested for cytotoxicity in vitro with HOS.T4.R5 cells. The latter were seeded at […] per well and incubated with peptides as described elsewhere herein for the infection inhibition assays. Cell viability was determined using the tetrazolium salt premix reagent WST-1 from TaKaRa Bio, Inc., by following the manufacturer's protocol. The formazan product was measured 24 h post-exposure using a microplate reader (Molecular Devices) at an absorbance wavelength of 450 nm.

The conditions of data set [3]: PBS buffer or PBS buffer with 5% DMSO. The source says:
Each cPT was synthesized starting from the corresponding amino acids: Asn for 34 and Dab for 35. Designation of “poor” and “good” solubility was based on behavior of cPT in PBS buffer or PBS buffer with 5% DMSO.

For data set [4], the system named is subtype A, B and C isolates. The conditions noted are these: read-out: IC50 range, neutralizes viral infection by subtype A; cited from earlier work.
The subject of data set [5] is viruses pseudotyped with VSV-G. The conditions noted are these: background; cited from earlier work.
The target in the next data set is monomeric gp120 (Human immunodeficiency virus type 1 group M subtype B, UniProt P35961). To be noted: background; cited from earlier work.
A further data set relates to tissue explants model. The conditions noted are these: concentrations up to 100 μM; cited from earlier work.

Consider four molecules from patent publication US12421279B2, “Cyclic peptide antiviral agents and methods using same” (priority 2016, dated 2025).

Where “and” joins values, the source holds several entries; their conditions need not be identical. Equal values may be shown once. Read-outs that look alike come from different tables or passages of the source. *1 amine or outer side, *2 acyl side, *3 side chain or, on linkers, in order; H or OH if unused. Where a SMILES comes first, the peptide text is derived from it. Bridges are numbered along the chain shown (N, C = ends). [ ]: non-standard residue; d: D form. X1 = O=C([C@@H]1C[C@H](n2cc(-c3ccc(-c4cccs4)cc3)nn2)CN1[*:1])[*:2]; X9 = CCc1ccc(-c2cn([C@H]3C[C@@H](C(=O)[*:2])N([*:1])C3)nn2)cc1; Bta = N[C@@H](Cc1csc2ccccc12)C(=O)O; Chg = N[C@H](C(=O)O)C1CCCCC1; Dab = NCC[C@H](N)C(=O)O Where only a bound is given, the exact number is not on record here.

`CC[C@H](C)[C@@H]1NC(=O)[C@H](CC(N)=O)NC(=O)[C@@H](N)CC(=O)NCCCC[C@@H](C(N)=O)NC(=O)[C@H](Cc2c[nH]c3ccccc23)NC(=O)[C@@H]2C[C@H](n3cc(-c4ccc(-c5cccs5)cc4)nn3)CN2C1=O` [cPT 36, (3S,6S,14S,17S,20S,24S,25aS)-3-((1H-indol-3-yl)methyl)-14-amino-17-(2-amino-2-oxoethyl)-20-((S)-sec-butyl)-1,4,12,15,18,21-hexaoxo-24-(4-(4-(thiophen-2-yl)phenyl)-1H-1,2,3-triazol-1-yl)tetracosahydro-1H-pyrrolo[2,1-f][1,4,7,10,13,18]hexaazacyclotricosine-6-carboxamide] (H-DNI[X1]WK-NH2; lactam 1-6): the “fold improvement in potency compared to 23” value in the data set on HIV-1Bal.01 (infection inhibition) was above 2 fold. In addition, the IC50 (in general, the point on the concentration scale where inhibition reaches its midpoint) is 105 nM and ~100 nM with HIV-1Bal.01; around 105 nM with HIV-1Bal.01 (listed as 29N-2); around 56 nM in data set [1]; around 66 nM in data set [2]. Besides, the Kd (usually the concentration at which binding is half-saturated) on wild type gp120 YU-2 worked out at 350 nM. Further, at wild type gp120 YU-2 (ITC, 25° C.), the ΔH is -4.07 ± 0.06 kcal/mol. Besides, the ΔS on wild type gp120 YU-2 (ITC, 25° C.) came to 15.9 cal/mol. The “−TΔS” value at wild type gp120 YU-2 (ITC, 25° C.) is -4.74 kcal/mol. Further, the “inhibition of gp120 binding to 17b (in words)” value was “inhibited gp120 binding to both CD4 and 17b” in data set [1]; “dual inhibitors of both CD4 and 17b binding to gp120” in [1] (listed as 29N-2). For the same molecule, the “inhibition of gp120 binding to CD4 (in words)” value is “inhibited gp120 binding to both CD4 and 17b” in data set [2]; “dual inhibitors of both CD4 and 17b binding to gp120” in [2] (listed as 29N-2). Further, the “selectivity index (SI)” value with HOS.T4.R5 cells (estimated from the IC50 and the CC50 values) is listed as above 1000. Further, the “cytotoxicity (cell viability)” value in the data set on HOS.T4.R5 cells (highest concentrations used 100 μM, 24 h post-exposure) is “no cytotoxicity was detected”.

For the molecule `CCc1ccc(-c2cn([C@H]3C[C@H]4C(=O)N[C@@H](Cc5csc6ccccc56)C(=O)N[C@H](C(N)=O)CCCCNC(=O)C[C@H](N)C(=O)N[C@@H](CC(N)=O)C(=O)N[C@@H](C5CCCCC5)C(=O)N4C3)nn2)cc1` [compound 34] (H-DN[Chg][X9][Bta]K-NH2; lactam 1-6), in data set [3], the solubility result was “poor solubility”.

Take `CCc1ccc(-c2cn([C@H]3C[C@H]4C(=O)N[C@@H](Cc5csc6ccccc56)C(=O)N[C@H](C(N)=O)CCCCNC(=O)C[C@H](N)C(=O)N[C@@H](CCN)C(=O)N[C@@H](C5CCCCC5)C(=O)N4C3)nn2)cc1` [compound 35] (H-D[Dab][Chg][X9][Bta]K-NH2; lactam 1-6): the solubility result in data set [3] is recorded as “better solubility”.

For the molecule “(S)-4-((S)-2-((S)-2-((2S,4S)-1-(L-arginyl-L-isoleucyl-L-asparaginyl-L-asparaginyl-L-alloisoleucyl)-4-(4-ferrocenyl-1H-1,2,3-triazol-1-yl)pyrrolidine-2-carboxamido)-3-(1H-indol-3-yl) propanamido)-3-hydroxypropanamido)-5-(((S)-1-(((S)-1-(((S)-1-amino-4-(methylthio)-1-oxobutan-2-yl)amino)-4-(methylthio)-1-oxobutan-2-yl)amino)-1-oxopropan-2-yl)amino)-5-oxopentanoic acid [HNG156]”, the IC50 in data set [4] was 0.08 to 62.5 µM. Besides, the “neutralization of VSV-G pseudotyped viruses” value in data set [5] is “not viruses pseudotyped with VSV-G”. On monomeric gp120, the Kd is 7 nM. In the data set on tissue explants model, the toxicity result is on record as “no detectable toxicity”.
